Results published in PubChem BioAssay AID248 (DTP/NCI, 2004).
Where “and” joins values, the source holds several entries; their conditions need not be identical. Identical values can stand only once. Inconclusive results and toxic doses are left out. Cut-off read from the data, not from the text of the source: active = T/C of 150% or more; inactive = T/C below 125%.

Tested on: L1210 leukemia ip in BDF1 mice, survival T/C
Assay: NCI In Vivo Anticancer Drug Screen. Data for tumor model L1210 Leukemia (intraperitoneal) in B6D2F1 (BDF1) mice
Settings: endpoint: mean survival time, higher = longer survival
How it was run: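 Read-out is survival time, reported as the treated-group measurement over the vehicle-control measurement.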

[1] = dose: 100.0 mg/kg/injection, schedule: Q01DX001 (ip), vehicle: Klucel (hydroxypropylcellulose) (HPC)
[2] = dose: 200.0 mg/kg/injection, schedule: Q01DX001 (ip), vehicle: Klucel (hydroxypropylcellulose) (HPC)
[3] = dose: 400.0 mg/kg/injection, schedule: Q01DX001 (ip), vehicle: Klucel (hydroxypropylcellulose) (HPC)
[4] = dose: 50.0 mg/kg/injection, schedule: Q01DX001 (ip), vehicle: saline
[5] = dose: 100.0 mg/kg/injection, schedule: Q01DX001 (ip), vehicle: saline
[6] = dose: 200.0 mg/kg/injection, schedule: Q01DX001 (ip), vehicle: saline
[7] = dose: 400.0 mg/kg/injection, schedule: Q01DX001 (ip), vehicle: saline
[8] = dose: 100.0 mg/kg/injection, schedule: Q04DX003 (ip), vehicle: Klucel (hydroxypropylcellulose) (HPC)
[9] = dose: 200.0 mg/kg/injection, schedule: Q04DX003 (ip), vehicle: Klucel (hydroxypropylcellulose) (HPC)
[10] = dose: 400.0 mg/kg/injection, schedule: Q04DX003 (ip), vehicle: Klucel (hydroxypropylcellulose) (HPC)
[11] = dose: 15.0 mg/kg/injection, schedule: Q01DX Z (ip), vehicle: carboxymethylcellulose (CMC)
[12] = dose: 30.0 mg/kg/injection, schedule: Q01DX Z (ip), vehicle: carboxymethylcellulose (CMC)
[13] = dose: 60.0 mg/kg/injection, schedule: Q01DX Z (ip), vehicle: carboxymethylcellulose (CMC)
[14] = dose: 120.0 mg/kg/injection, schedule: Q01DX Z (ip), vehicle: carboxymethylcellulose (CMC)
[15] = dose: 120.0 mg/kg/injection, schedule: Q01DX Z (oral), vehicle: carboxymethylcellulose (CMC)
[16] = dose: 240.0 mg/kg/injection, schedule: Q01DX Z (oral), vehicle: carboxymethylcellulose (CMC)
[17] = dose: 480.0 mg/kg/injection, schedule: Q01DX Z (oral), vehicle: carboxymethylcellulose (CMC)
[18] = dose: 100.0 mg/kg/injection, schedule: Q01DX009 (ip), vehicle: Klucel (hydroxypropylcellulose) (HPC)
[19] = dose: 100.0 mg/kg/injection, schedule: Q01DX001 (ip), vehicle: saline with Tween-80
[20] = dose: 100.0 mg/kg/injection, schedule: Q04DX003 (ip), vehicle: saline with Tween-80
[21] = dose: 200.0 mg/kg/injection, schedule: Q01DX001 (ip), vehicle: saline with Tween-80
[22] = dose: 200.0 mg/kg/injection, schedule: Q04DX003 (ip), vehicle: saline with Tween-80
[23] = dose: 400.0 mg/kg/injection, schedule: Q01DX001 (ip), vehicle: saline with Tween-80
[24] = dose: 200.0 mg/kg/injection, schedule: Q01DX009 (ip), vehicle: Klucel (hydroxypropylcellulose) (HPC)
[25] = dose: 100.0 mg/kg/injection, schedule: Q01DX009 (ip), vehicle: saline with Tween-80
[26] = dose: 200.0 mg/kg/injection, schedule: Q01DX009 (ip), vehicle: saline with Tween-80

Measured: T/C

CCCCCCCCCCCCOc1ccc(Sc2ccc([N+](=O)[O-])cc2)cc1
inactive: [1] 95 % of control | [2] 87 % of control | [3] 90 % of control

Cc1ccc(S(=O)(=O)N(c2cc(C)ccc2C)c2ccccc2N)cc1
inactive: [4] 93 % of control | [5] 95 % of control | [6] 98 % of control | [7] 93 % of control

Cc1ccccc1SSc1ccccc1C
inactive: [8] 94 % of control | [9] 97 % of control | [10] 91 % of control

Cc1[nH]c2c(C)ccc(C)c2c(=O)c1Br
inactive: dose: 100.0 mg/kg/injection, schedule: Q01DX001 (ip), vehicle: other 91 % of control | dose: 200.0 mg/kg/injection, schedule: Q01DX001 (ip), vehicle: other 94 % of control | dose: 400.0 mg/kg/injection, schedule: Q01DX001 (ip), vehicle: other 86 % of control

CC(C)c1ccc(/C(=N\N=C(N)N)C2CC2)cc1
inactive: [11] 93 % of control | [12] 95 % of control | [13] 92 % of control and 93 % of control | [14] 95 % of control and 96 % of control | [15] 101 % of control | dose: 240.0 mg/kg/injection, schedule: Q01DX Z (ip), vehicle: carboxymethylcellulose (CMC) 93 % of control | [16] 110 % of control | [17] 102 % of control | dose: 960.0 mg/kg/injection, schedule: Q01DX Z (oral), vehicle: carboxymethylcellulose (CMC) 102 % of control

O=C1OC(c2cccc(Cl)c2)=N/C1=C\c1ccccc1O
inactive: [18] 94 % of control | dose: 400.0 mg/kg/injection, schedule: Q01DX009 (ip), vehicle: Klucel (hydroxypropylcellulose) (HPC) 94 % of control

O=C(Nc1ccccc1)Nc1ccc([N+](=O)[O-])cc1[N+](=O)[O-]
inactive: [19] 93 % of control | [20] 92 % of control | [21] 92 % of control | [22] 93 % of control | [23] 98 % of control

Cn1c(=O)c2ccccc2c2cc([N+](=O)[O-])ccc21
inactive: dose: 50.0 mg/kg/injection, schedule: Q01DX009 (ip), vehicle: Klucel (hydroxypropylcellulose) (HPC) 93 % of control | [18] 97 % of control | [8] 90 % of control | [24] 97 % of control | [9] 94 % of control

CCCP(=O)(CCC)C1CCCCC1
inactive: [19] 99 % of control | [21] 98 % of control | [23] 86 % of control

C#CCC#Cc1ccccc1
inactive: [25] 89 % of control | [26] 92 % of control

Cc1ccc(NCCO)c2c(=O)c3ccccc3sc12
inactive: [5] 101 % of control | [6] 101 % of control | [7] 89 % of control

Cc1ccc(OCCC(=O)O)cc1
inactive: dose: 100.0 mg/kg/injection, schedule: Q04DX002 (ip), vehicle: saline 108 % of control | dose: 200.0 mg/kg/injection, schedule: Q04DX002 (ip), vehicle: saline 101 % of control | dose: 400.0 mg/kg/injection, schedule: Q04DX002 (ip), vehicle: saline 108 % of control

CCNC(=O)NC(C(=O)OCC)C(=O)OCC
inactive: [1] 107 % of control | [2] 98 % of control | [3] 90 % of control

Clc1cc(C(Cl)(Cl)Cl)c(Cl)cc1C(Cl)(Cl)Cl
inactive: dose: 25.0 mg/kg/injection, schedule: Q04DX003 (ip), vehicle: Klucel (hydroxypropylcellulose) (HPC) 93 % of control | dose: 50.0 mg/kg/injection, schedule: Q04DX003 (ip), vehicle: Klucel (hydroxypropylcellulose) (HPC) 104 % of control | dose: 100.0 mg/kg/injection, schedule: Q01DX009 (ip), vehicle: saline sonified 120 % of control | [8] 97 % of control | dose: 200.0 mg/kg/injection, schedule: Q01DX009 (ip), vehicle: saline sonified 104 % of control | [9] 94 % of control | dose: 400.0 mg/kg/injection, schedule: Q01DX009 (ip), vehicle: saline sonified 94 % of control | [10] 94 % of control

O=C(NNS(=O)(=O)c1ccc([N+](=O)[O-])cc1)c1ccccc1
inactive: dose: 100.0 mg/kg/injection, schedule: Q01DX001 (ip), vehicle: carboxymethylcellulose (CMC) 105 % of control | dose: 200.0 mg/kg/injection, schedule: Q01DX001 (ip), vehicle: carboxymethylcellulose (CMC) 102 % of control | dose: 400.0 mg/kg/injection, schedule: Q01DX001 (ip), vehicle: carboxymethylcellulose (CMC) 100 % of control

CCOC=Nc1c(N)ncnc1Cl
inactive: dose: 125.0 mg/kg/injection, schedule: Q01DX Z (ip), vehicle: other 93 % of control | dose: 250.0 mg/kg/injection, schedule: Q01DX Z (ip), vehicle: other 93 % of control | dose: 500.0 mg/kg/injection, schedule: Q01DX Z (ip), vehicle: other 103 % of control

O=C(O)CCc1nn(-c2ccccc2)c(=O)c2ccccc12
inactive: dose: 100.0 mg/kg/injection, schedule: Q04DX002 (ip), vehicle: Klucel (hydroxypropylcellulose) (HPC) 106 % of control | dose: 200.0 mg/kg/injection, schedule: Q04DX002 (ip), vehicle: Klucel (hydroxypropylcellulose) (HPC) 95 % of control

C[Se]c1nc2c(=O)[nH]cnc2n1C1OC(CO)C(O)C1O (stereo not drawn)
inactive: dose: 100.0 mg/kg/injection, schedule: Q01DX005 (ip), vehicle: saline 103 % of control | dose: 200.0 mg/kg/injection, schedule: Q01DX005 (ip), vehicle: saline 111 % of control

O=C(Nc1ccc2c(O)cc(S(=O)(=O)O)cc2c1)Nc1ccc2c(O)cc(S(=O)(=O)O)cc2c1
inactive: dose: 100.0 mg/kg/injection, schedule: Q04DX003 (ip), vehicle: saline 96 % of control | dose: 200.0 mg/kg/injection, schedule: Q04DX003 (ip), vehicle: saline 108 % of control | dose: 400.0 mg/kg/injection, schedule: Q04DX003 (ip), vehicle: saline 108 % of control

CCCCCCCCCCCCOc1ccc(C(C)(C)C)cc1
inactive: dose: 100.0 mg/kg/injection, schedule: Q01DX007 (ip), vehicle: saline with Tween-80 97 % of control | [20] 100 % of control | dose: 200.0 mg/kg/injection, schedule: Q01DX007 (ip), vehicle: saline with Tween-80 96 % of control | [22] 95 % of control | dose: 400.0 mg/kg/injection, schedule: Q01DX007 (ip), vehicle: saline with Tween-80 97 % of control | dose: 400.0 mg/kg/injection, schedule: Q04DX003 (ip), vehicle: saline with Tween-80 101 % of control

Nc1ccn(C2SC(CO)C(O)C2O)c(=O)n1 (stereo not drawn)
inactive: [4] 100 % of control | [5] 105 % of control | [6] 100 % of control | [7] 92 % of control

CCCCCCCCCCCCCCCCC/C=N\N=C(N)N
inactive: [11] 101 % of control | [12] 96 % of control | [13] 90 % of control | dose: 60.0 mg/kg/injection, schedule: Q01DX Z (oral), vehicle: carboxymethylcellulose (CMC) 106 % of control | [14] 104 % of control | [15] 110 % of control | [16] 118 % of control | [17] 118 % of control

C=CCNC(=S)OCC
inactive: dose: 100.0 mg/kg/injection, schedule: Q04DX002 (ip), vehicle: saline with Tween-80 100 % of control | dose: 200.0 mg/kg/injection, schedule: Q04DX002 (ip), vehicle: saline with Tween-80 97 % of control | dose: 400.0 mg/kg/injection, schedule: Q04DX002 (ip), vehicle: saline with Tween-80 103 % of control

Cc1cc2nc(NC(=O)C3CC3)sc2cc1C
inactive: [18] 91 % of control | [24] 91 % of control

Cc1cc(C)c(N(CC(=O)O)S(=O)(=O)c2ccccc2)c(C)c1N(CC(=O)O)S(=O)(=O)c1ccccc1
inactive: [25] 101 % of control | [26] 98 % of control | dose: 400.0 mg/kg/injection, schedule: Q01DX009 (ip), vehicle: saline with Tween-80 97 % of control

Cn1cc([N+](=O)[O-])cnc1=O
inactive: [8] 100 % of control | [9] 102 % of control | [10] 102 % of control
